# Assay results as given in BindingDB's records for doi:10.1021/acs.jmedchem.0c01153 (Tokyo Medical and Dental University (Tmdu), 2021).
# Tests used:
# [1] = Inhibition of HIV1 KP-5mp1 gp120 interaction with CD4 human TZM-bl cells assessed as decrease in viral entry by MTT assay
# [2] = Inhibition of HIV1 KP-5mvcR gp120 interaction with CD4 in human TZM-bl cells assessed as decrease in viral entry by MTT assay
Structure (SMILES),IC50 [1] [nM],IC50 [2] [nM]
N=C(N)NCCCCCCCCCCC(=O)NCCN1CCC(NC(=O)C(=O)Nc2ccc(Cl)cc2)CC12CCCCC2 (stereo not given),43000,720
N=C(N)NCCCCC(=O)NCCN1CCC(NC(=O)C(=O)Nc2ccc(Cl)cc2)CC12CCCCC2 (stereo not given),2100,120
N=C(N)NCCCC[C@H](NC(=N)N)C(=O)NCCN1CCC(NC(=O)C(=O)Nc2ccc(Cl)cc2)CC12CCCCC2 (stereo not given in full),3900,290
N=C(N)NCC(=O)NCCCC[C@H](NC(=N)N)C(=O)NCCN1CCC(NC(=O)C(=O)Nc2ccc(Cl)cc2)CC12CCCCC2 (stereo not given in full),4400,230
N=C(N)NCCCCC(=O)NCCCC[C@H](NC(=N)N)C(=O)NCCN1CCC(NC(=O)C(=O)Nc2ccc(Cl)cc2)CC12CCCCC2 (stereo not given in full),13000,330
N=C(N)NCCCCCCCC(=O)NCCCC[C@H](NC(=N)N)C(=O)NCCN1CCC(NC(=O)C(=O)Nc2ccc(Cl)cc2)CC12CCCCC2 (stereo not given in full),2900,420
N=C(N)NCCCCCCCCCCC(=O)NCCCC[C@H](NC(=N)N)C(=O)NCCN1CCC(NC(=O)C(=O)Nc2ccc(Cl)cc2)CC12CCCCC2 (stereo not given in full),4800,880
CCCCCCCCCCCCCCCCNC(=O)CCC(=O)OC(CCCNS(=O)(=O)c1ccc([N+](=O)[O-])cc1)C(=O)NCCN1CCC(NC(=O)C(=O)Nc2ccc(Cl)cc2)CC12CCCCC2 (stereo not given),,3400
COCCOCCOCCOCCOCCNC(=O)CCC(=O)OC(CCCNS(=O)(=O)c1ccc([N+](=O)[O-])cc1)C(=O)NCCN1CCC(NC(=O)C(=O)Nc2ccc(Cl)cc2)CC12CCCCC2 (stereo not given),,570
CCCCCCCCCCCCCCCCNC(=O)CCC(=O)OC(CCCN)C(=O)NCCN1CCC(NC(=O)C(=O)Nc2ccc(Cl)cc2)CC12CCCCC2 (stereo not given),,250
COCCOCCOCCOCCOCCNC(=O)CCC(=O)OC(CCCN)C(=O)NCCN1CCC(NC(=O)C(=O)Nc2ccc(Cl)cc2)CC12CCCCC2 (stereo not given),,46
CCCCCCCCCCCCCCCCNC(=O)CCC(=O)OC(CCCNC(=N)N)C(=O)NCCN1CCC(NC(=O)C(=O)Nc2ccc(Cl)cc2)CC12CCCCC2 (stereo not given),,1200
COCCOCCOCCOCCOCCNC(=O)CCC(=O)OC(CCCNC(=N)N)C(=O)NCCN1CCC(NC(=O)C(=O)Nc2ccc(Cl)cc2)CC12CCCCC2 (stereo not given),,17
COCCOCCOCCOCCOCCNC(=O)CCC(=O)N[C@@H](CCCNC(=N)N)C(=O)NCCN1CCC(NC(=O)C(=O)Nc2ccc(Cl)cc2)CC12CCCCC2 (stereo not given in full),,130
COCCOCCOCCOCCOCCOCCOCCOCCOCCOCCOCCOCCNC(=O)CCC(=O)N[C@@H](CCCNC(=N)N)C(=O)NCCN1CCC(NC(=O)C(=O)Nc2ccc(Cl)cc2)CC12CCCCC2 (stereo not given in full),,< 100
COCCOCCOCCOCCOCCOCCOCCOCCOCCOCCOCCOCCOCCOCCOCCOCCOCCOCCOCCOCCOCCOCCOCCOCCNC(=O)CCC(=O)N[C@@H](CCCNC(=N)N)C(=O)NCCN1CCC(NC(=O)C(=O)Nc2ccc(Cl)cc2)CC12CCCCC2 (stereo not given in full),,< 100
N=C(N)NCCCCCCCC(=O)NCCN1CCC(NC(=O)C(=O)Nc2ccc(Cl)cc2)CC12CCCCC2 (stereo not given),> 100000,
"CC1(C)CC(NC(=O)C(=O)Nc2ccc(Cl)cc2)CC(C)(C)N1 [N-(4-chlorophenyl)-N'-(2,2,6,6-tetramethylpiperidin-4-yl)-oxalamide]",6900,
